This is an account of results in patent publication US9120249B2, “Implant device release agents and methods of using same” (ENDO PHARMACEUTICALS SOLUTIONS INC., priority 2007, dated 2015).

The conditions of data set [1]: cited from earlier work; for CMC: critical micelle concentration; for HLB: hydrophilic-lipophilic balance.
The nature of data set [2]: Tensile strength of gamma irradiated cartridges, initially and after storage at 37° C. Conditions: initially after irradiation and after 3 and 8 months storage at 37° C. The class given is physicochemical. The procedure: Approximately 15-20 cartridges of each formulation were prepared and gamma irradiated at 10-11 kGy. The tensile strength of five cartridges from each formulation was measured initially. The remaining cartridges were stored at 37° C. and tested for tensile strength again at 3 and 8 months.

On to Sucrose monolaurate, for which, in data set [1], the CMC is 0.2 mM and the HLB is roughly 8.

Turning to `O=C1O[C@H]([C@@H](O)CO)C(O)=C1O` [Ascorbic acid, ascorbic acid], the “tensile strength of cartridges, in words” value in data set [2] was “seems to be effective as well”.

Regarding Triton X-100, in data set [1], the CMC was 0.2 to 0.9 mM and the HLB is 13.5.

In the case of `CCCCCCCC/C=C\CCCCCCCC(=O)OCCOCC(OCCO)C1OCC(OCCO)C1OCCO` (stereo not shown) [Tween 80], in data set [1], the CMC is 0.012 mM and the HLB is given as 15.
